The values that follow come from patent US20140100156A1 (SANOFI, priority 2012, published 2014).

What all share (assay type): in vivo
Assay [1] concerns female diet-induced obese (DIO) C57BL/6NCrl mice. The assay can be described thus: Acute effect on blood glucose in fed female diet-induced obese (DIO) C57BL/6NCrl mice. The source says: (§1) Female C57BL/6NCrl mice were housed in groups in a specific pathogen-free barrier facility on a 12-h light/dark cycle with free access to water and high-fat diet. After 10 months on high-fat diet, mice were stratified to treatment groups (n=8), so that each group had similar mean body weight.
An aged-matched group with ad-libitum access to standard chow was included as standard control group.
Before the experiment, mice were subcutaneously (s.c.) injected with vehicle solution and weighed for 3 days to acclimate them to the procedures.
(§2) 1) Acute effect on blood glucose in fed DIO mice: initial blood samples were taken just before first administration (s.c.) of vehicle (phosphate buffer solution) or the exendin-4 derivatives at doses of 3, 10, and 100 μg/kg (dissolved in phosphate puffer), respectively. The volume of administration was 5 mL/kg. The animals had access to water and their corresponding diet during the experiment, food consumption was determined at all time points of blood sampling. Blood glucose levels were measured at t=0.5 h, t=1 h, t=2 h, t=4 h, t=6 h, t=8 h, and t=24 h (method: d-glucose hexokinase, hemolysate, AU640 Beckman Coulter). Blood sampling was performed by tail incision without anaesthesia.
(§3) Statistical analyses were performed with Everstat 6.0 by repeated measures two-way ANOVA and Dunnetts post-hoc analyses (glucose profile) and 1-way-ANOVA, followed by Dunnetts post-hoc test (body weight, body fat). Differences versus vehicle-treated DIO control mice were considered statistically significant at the p<0.05 level.
After blood sampling to determine the blood glucose baseline level, fed diet-induced obese female C57BL/6NCrI mice were administered 3, 10 or 100 μg/kg of SEQ ID NO: 97 or phosphate buffered solution (vehicle control on standard or high-fat diet) subcutaneously. At predefined time points, more blood samples were taken to measure blood glucose and generate the blood glucose profile over 24 h.

Assay [2] can be described thus: Subchronic effect on body weight and body fat in female DIO C57BL/6NCrl mice. The note with it: 4 weeks, mean. The method, then:
as §1
2) Subchronic effect on body weight: all animals were treated once daily s.c. in the morning, at the beginning of the light phase (12 h lights on) with either vehicle or exendin-4 derivatives at the abovementioned doses for 4 weeks. Body weight was recorded daily. On days 6 and 28, total fat mass was measured by nuclear magnetic resonance (NMR) using a Bruker minispec (Ettlingen, Germany).
as §3
Female obese C57BL/6NCrl mice were treated for 4 weeks once daily subcutaneously in the morning, at the beginning of the light phase (12 h lights on) with 3, 10 or 100 μg/kg SEQ ID NO: 97 or vehicle. Body weight was recorded daily, and body fat content was determined before the start of treatment and after 4 weeks of treatment.

The subject of assay [3] is female leptin-receptor deficient diabetic db/db mice. The assay can be described thus: Acute effect on blood glucose in fed female db/db mice.
Text: Female BKS.Cg-m+/+Leprdb/J (db/db) and BKS.Cg-m+/+Leprdb/+ (lean control) mice were obtained from Charles River Laboratories, Germany, at an age of 9-10 weeks. The animals were housed in groups in a specific pathogen-free barrier facility on a 12-h light/dark cycle with free access to water and rodent-standard chow. After 1 week of acclimatization, blood samples were drawn from the tail without anaesthesia and blood glucose (method: d-glucose hexokinase, hemolysate, AU640 Beckman Coulter) and HbA1c level (method: hemolysate, Cobas6000 c501, Roche Diagnostics, Germany) were determined.
Db/db mice were stratified to treatment groups (n=8), so that each group had similar baseline blood glucose and HbA1c levels.
as §2, with “db/db” for “DIO”, “or” for “or the”, “chow” for “their corresponding diet”, “h.” for “h (method: d-glucose hexokinase, hemolysate, AU640 Beckman Coulter).”
Statistical analyses were performed with Everstat 6.0 by repeated measures two-way ANOVA and Dunnetts post-hoc analyses. Differences versus vehicle-treated db/db control mice were considered statistically significant at the p<0.05 level.
After blood sampling to determine the blood glucose baseline level, fed diabetic female db/db mice were administered 3, 10 or 100 μg/kg of SEQ ID NO: 97 or phosphate buffered solution (vehicle-treated db/db control) subcutaneously. At predefined time points, more blood samples were taken to measure blood glucose and generate the blood glucose profile over 24 h. […]

The test system is the same in assay [4]. The assay can be described thus: Subchronic effect on blood glucose and HbA1c in female db/db mice. From the text: Female BKS.Cg-m+/+Leprdb/J (db/db) and BKS.Cg-m+/+Leprdb/+ (lean control) mice were obtained from Charles River Laboratories, Germany, at an age of 9-10 weeks. The animals were housed in groups in a specific pathogen-free barrier facility on a 12-h light/dark cycle with free access to water and rodent-standard chow. After 1 week of acclimatization, blood samples were drawn from the tail without anaesthesia and blood glucose (method: d-glucose hexokinase, hemolysate, AU640 Beckman Coulter) and HbA1c level (method: hemolysate, Cobas6000 c501, Roche Diagnostics, Germany) were determined. […]
2) Subchronic effect on blood glucose and HbA1c: all animals were treated once daily s.c. with either vehicle or exendin-4 derivatives at the abovementioned doses for 4 weeks. At the end of the study, blood samples (tail, no anaesthesia) were analyzed for glucose and HbA1c. […]
Female diabetic mice were treated for 4 weeks once daily subcutaneously with 3, 10 or 100 μg/kg SEQ ID NO: 97 or vehicle. Blood glucose and HbA1c were determined before start of treatment and at the end of the study after 4 weeks of treatment.
Female diabetic mice were treated for 4 weeks subcutaneously with 50 μg/kg SEQ ID NO: 24 or vehicle twice daily. Blood glucose and HbA1c were determined before start of treatment and at the end of the study after 4 weeks of treatment.

As to “SEQ ID NO: 97: exendin-4 derivative, K(γE-x53) in position 14 (HXQGTFTSDLSKQKDSRRAQDFIEWLKNGGPSSGAPPPS; K14 side chain γE-x53; Exendin-4-analogue)”, the “duration of decrease in blood glucose compared to DIO control mice” value in assay [1] (high dose (100 μg/kg s.c.)) is listed as greater than 24 h; in assay [1] (low dose (3 μg/kg s.c.)), “at least 8 h”; in assay [1] (medium dose (10 μg/kg s.c.)), “at least 8 h”. Moreover, the Body fat change in assay [2] (3 μg/kg s.c. once daily) was -0.5 g; in assay [2] (10 μg/kg s.c. once daily), -2.5 g; in assay [2] (100 μg/kg s.c. once daily), -2.4 g. The results for the Overall weight change in assay [2] (3 μg/kg s.c. once daily), in assay [2] (10 μg/kg s.c. once daily) and in assay [2] (100 μg/kg s.c. once daily) were -0.9 g, -3.0 g and -2.3 g, respectively. The “duration of decrease in blood glucose compared to db/db control mice” value in assay [3] (high dose (100 μg/kg s.c.)) was greater than 24 h; in assay [3] (low dose (3 μg/kg s.c.)), “up to 8 h”; in assay [3] (medium dose (10 μg/kg s.c.)), “up to 8 h”. Further, the “blood glucose level versus db control mice at the end of the study” value in assay [4] (3, 10 or 100 μg/kg s.c. once daily, 4 weeks (all dose groups)) is “significant lower blood glucose level”. The “HbA1c level versus db control mice at the end of the study” value in assay [4] (high dose (100 μg/kg s.c. once daily), 4 weeks) was “significant lower HbA1c level”.
